Several values for one entry are separate records, joined by “and”; a condition that tells them apart may be missing. Identical values can stand only once.
Tested on: 889142-216-R-J1-PDC complex spheroid viability
Assay: Anticancer human tumor 889142-216-R-J1-PDC patient-derived bladder carcinoma cell line growth inhibition [POLQ]
Conditions: for viability, T/C: stronger effect = lower value
Description: Multicellular complex tumor spheroid response to Polymerase (POL) inhibitors (novobiocin, ART-558, RP6685) in combination with a variety of drugs and investigational agents in selected tumor cell lines
The POL inhibitors (novobiocin, ART-558, and RP6685) were evaluated both individually and in combination with standard of care and investigational anticancer small molecules within a complex spheroid model of solid tumors. . Complex spheroids include a stromal component modeled by human endothelial cells (HUVEC) and fibroblasts modeled by human mesenchymal stem cells (MSCs). The concentration ranges selected for each drug and investigational agent were based upon clinically achievable concentrations if the clinical Cmax of the agent was known.
Compounds. The drugs and investigational agents: novobiocin (NSC847541), ART-558 (NSC835418), RP-6685 (NSC848927), peposertib (NSC802822), ceralasertib (NSC780249), elimusertib (NSC800525), camonsertib (NSC841442), AZD-1390 (NSC803789), olaparib (NSC753686), talazoparib (NSC767125), rucaparib (NSC756644), sotorasib (NSC818433), MRTX-1133 (NSC836407), SN-38 (NSC673596), topotecan (NSC609699), epotoside (NSC141540), doxorubicin (NSC123127), gemcitabine (NSC613327), 5-fluorouracil (NSC19893), paclitaxel (NSC125973), vemurafenib (NSC761431), MSA-2 (NSC828583), SN-011 (NSC837082), adavosertib (NSC754352), prexasertib (NSC758257), carboplatin (NSC241240) and oxaliplatin (NSC266046), were obtained from the National Cancer Institute (NCI) Developmental Therapeutics Program Chemical Repository (21). The FDA-approved anticancer drug set is available from the Developmental Therapeutics Program at https://dtp.cancer.gov/organization/dscb/obtaining/. […] The stock solutions were prepared in dimethyl sulfoxide (DMSO, Sigma-Aldrich, St. Louis, MO, cat. D2650), except for the platinum compounds which were prepared in saline (Quality Biological, Gaithersburg, MD, cat. 114-055-101), at 800-fold the tested concentration and stored at -70 degrees C prior to their use. All drugs and investigational agents were tested over a range starting from a high concentration at or near the clinical Cmax and decreasing in half-log increments. If the clinical Cmax for an agent had not been determined, the highest concentration tested was 10 microM, except for SN-38, which was tested at a high concentration of 1 microM.
Cell Culture. All cells were maintained in an incubator at 37 degrees C and 5% CO2 with 95% humidity. The PDC lines were cultured according to standard operating procedures established by the NCI PDMR (https://pdmr.cancer.gov). Table 3 of the manuscript, lists the cell lines along with the number of the three cell types plated to form the mct-spheroids and media for tumor cell growth. After thawing, all PDC lines, except 997537-175-T-J1-PDC and 415267-285-R-J2-PDC, were cultured in Matrigel-coated flasks prepared with a working solution of 1X Ham's F-12 nutrient mix, without supplementation (Thermo Fisher Scientific, cat. 11765054), 100 U/mL penicillin-streptomycin (Thermo Fisher Scientific, cat. 15140122), and 2.5% Matrigel (Corning Inc., Corning, NY, cat. 354248) for the first three passages. The two PDC lines 997537-175-T-J1-PDC and 415267-285-R-J2-PDC were cultured on uncoated flasks. The 857933-349-R-J2-PDC line was cultured in 6C/Colon 1B media containing advanced DMEM/F-12 (Thermo Fisher Scientific, cat. 12634028), 10 mM HEPES (Thermo Fisher Scientific, cat. 15630080), 1X GlutaMAX supplement (Thermo Fisher Scientific, cat. 35050061), 0.1 mg/mL primocin (InvivoGen, San Diego, CA, cat. ant-pm-2), 10% defined fetal bovine serum, heat inactivated (HyClone Laboratories Inc., Logan, UT, cat. SH30070.03HI), 50% L-WRN conditioned media (ATCC, cat. CRL-3276), 1.25 mM N-Acetyl-L-cysteine (Sigma-Aldrich, cat. A9165), 10 mM nicotinamide (Sigma-Aldrich, cat. N0636), 1X B-27 supplement (Thermo Fisher Scientific, cat. 17504044), 1X N-2 supplement (Thermo Fisher Scientific, cat. […]
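Also: spheroids exposed to compounds for seven days.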
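For viability, T/C in this document: 100% = DMSO vehicle control viability.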

## C=CCn1c(=O)c2cnc(Nc3ccc(N4CCN(C)CC4)cc3)nc2n1-c1cccc(C(C)(C)O)n1 + Cc1cccc(N(C)C(=O)C2C(O)CCN2c2nc(C)cc(C(F)(F)F)c2C#N)c1
Curve of first compound, second compound 0.0316 µM
  IC50: > 1000 nM
Curve of first compound, second compound 0.1 µM
  IC50: > 1000 nM
Curve of first compound, second compound 0.316 µM
  IC50: > 1000 nM
Curve of first compound, second compound 1 µM
  IC50: > 1000 nM
Curve of first compound, second compound 3.16 µM
  IC50: > 1000 nM
Curve of first compound, second compound 10 µM
  IC50: > 1000 nM
Second compound 0.0316 µM, first compound 0.00316 µM
  viability, T/C: 113%
Second compound 0.0316 µM, first compound 0.01 µM
  viability, T/C: 93.8%
Second compound 0.0316 µM, first compound 0.0316 µM
  viability, T/C: 103%
Second compound 0.0316 µM, first compound 0.1 µM
  viability, T/C: 101%
Second compound 0.0316 µM, first compound 0.316 µM
  viability, T/C: 90%
Second compound 0.0316 µM, first compound 1 µM
  viability, T/C: 55.5%
Second compound 0.1 µM, first compound 0.00316 µM
  viability, T/C: 99.3%
Second compound 0.1 µM, first compound 0.01 µM
  viability, T/C: 115%
Second compound 0.1 µM, first compound 0.0316 µM
  viability, T/C: 104%
Second compound 0.1 µM, first compound 0.1 µM
  viability, T/C: 90.1%
Second compound 0.1 µM, first compound 0.316 µM
  viability, T/C: 106%
Second compound 0.1 µM, first compound 1 µM
  viability, T/C: 54.4%
Second compound 0.316 µM, first compound 0.00316 µM
  viability, T/C: 129%
Second compound 0.316 µM, first compound 0.01 µM
  viability, T/C: 89.5%
Second compound 0.316 µM, first compound 0.0316 µM
  viability, T/C: 99.2%
Second compound 0.316 µM, first compound 0.1 µM
  viability, T/C: 95.8%
Second compound 0.316 µM, first compound 0.316 µM
  viability, T/C: 75%
Second compound 0.316 µM, first compound 1 µM
  viability, T/C: 69.3%
Second compound 1 µM, first compound 0.00316 µM
  viability, T/C: 118%
Second compound 1 µM, first compound 0.01 µM
  viability, T/C: 84.4%
Second compound 1 µM, first compound 0.0316 µM
  viability, T/C: 88.9%
Second compound 1 µM, first compound 0.1 µM
  viability, T/C: 85.2%
Second compound 1 µM, first compound 0.316 µM
  viability, T/C: 90.5%
Second compound 1 µM, first compound 1 µM
  viability, T/C: 61.8%
Second compound 3.16 µM, first compound 0.00316 µM
  viability, T/C: 117%
Second compound 3.16 µM, first compound 0.01 µM
  viability, T/C: 113%
Second compound 3.16 µM, first compound 0.0316 µM
  viability, T/C: 78.2%
Second compound 3.16 µM, first compound 0.1 µM
  viability, T/C: 111%
Second compound 3.16 µM, first compound 0.316 µM
  viability, T/C: 80.8%
Second compound 3.16 µM, first compound 1 µM
  viability, T/C: 59.8%
Second compound 10 µM, first compound 0.00316 µM
  viability, T/C: 108%
Second compound 10 µM, first compound 0.01 µM
  viability, T/C: 127%
Second compound 10 µM, first compound 0.0316 µM
  viability, T/C: 116%
Second compound 10 µM, first compound 0.1 µM
  viability, T/C: 77%
Second compound 10 µM, first compound 0.316 µM
  viability, T/C: 70.2%
Second compound 10 µM, first compound 1 µM
  viability, T/C: 54.7%

## CC1COCCN1c1cc(C2(O)CC3CCC(C2)O3)c2cnn(-c3ccn[nH]3)c2n1 (stereo not given)
Compound 0.0316 µM
  viability, T/C: 57.4% and 69.5% and 69.9%
Compound 0.1 µM
  viability, T/C: 44% and 49.5% and 54.2%
Compound 0.316 µM
  viability, T/C: 43.3% and 37.3% and 38.3%
Compound 1 µM
  viability, T/C: 32.6% and 33.5% and 34.5%
Compound 3.16 µM
  viability, T/C: 26% and 30.2% and 30.3%
Compound 10 µM
  viability, T/C: 14.7% and 11.1% and 17.2%
Curve of compound
  IC50: 75.7 nM and 135 nM and 153 nM

## CNCc1ccc(-c2[nH]c3cc(F)cc4c3c2CCNC4=O)cc1
Compound 0.0316 µM
  viability, T/C: 113% and 99.8% and 88.3%
Compound 0.1 µM
  viability, T/C: 91.7% and 96.3% and 114%
Compound 0.316 µM
  viability, T/C: 86% and 112% and 90.9%
Compound 1 µM
  viability, T/C: 88% and 96.9% and 104%
Compound 3.16 µM
  viability, T/C: 87.2% and 83.7% and 97.5%
Compound 10 µM
  viability, T/C: 76.9% and 70.9% and 70.5%
Curve of compound
  IC50: > 10000 nM

## O=c1[nH]cc(F)c(=O)[nH]1
Compound 0.0316 µM
  viability, T/C: 97% and 89.8% and 113%
Compound 0.1 µM
  viability, T/C: 93.8% and 95.1% and 88.7%
Compound 0.316 µM
  viability, T/C: 106% and 83.7% and 94.8%
Compound 1 µM
  viability, T/C: 94.5% and 79.1% and 72.9%
Compound 3.16 µM
  viability, T/C: 76.2% and 61.7% and 80.9%
Compound 10 µM
  viability, T/C: 67.3% and 59.5% and 77.3%
Curve of compound
  IC50: > 10000 nM

## COc1cc(C2c3cc4c(cc3C(OC3OC5COC(C)OC5C(O)C3O)C3COC(=O)C23)OCO4)cc(OC)c1O (stereo not given)
Compound 0.0316 µM
  viability, T/C: 93.9% and 87.6% and 89.9%
Compound 0.1 µM
  viability, T/C: 82.4% and 88.4% and 76.9%
Compound 0.316 µM
  viability, T/C: 77.6% and 73% and 63.3%
Compound 1 µM
  viability, T/C: 58.1% and 80.3% and 53.2%
Compound 3.16 µM
  viability, T/C: 63.4% and 68.3% and 65.3%
Compound 10 µM
  viability, T/C: 54.3% and 62.4% and 58.1%
Curve of compound
  IC50: > 10000 nM

From PubChem BioAssay AID1963831 (Molecular Pharmacology Branch, DTP, NCI, 2024)
